pEC50: −log10 of the molar value. The source made the active and inactive calls. The rule behind the calls is not given here.
Tests used:
Influenza A virus [1] = test: Antiviral activity against Influenza A virus H1N1 (A/Weiss/43)-infected in BALB/c mouse assessed as reduction in lung tissue damage administered intranasally for 4 to 6 days starting from 3 hrs post-viral infection; assay type: functional, organism-based; details: dose 25-100 mg/kg/day, route nas, time 4-6 day
Influenza A virus [2] = test: Inhibition of Influenza A virus Neuraminidase at 100 to 300 uM pretreated with enzyme for 5 mins followed by fluorogenic substrate addition and measured for 1 hr by fluorescence based analysis; details: dose 100-300 µM, time 65.0 min
[3] = Selectivity index, ratio of CC50 for dog MDCK cells to EC50 for antiviral activity against Influenza A virus H1N1 (A/Weiss/43) infected in MDCK cells treated for 2 hrs before viral infection and measured after 72 hrs; assay type: toxicity, cell-based; details: read-out: Ratio CC50/EC50
Influenza A virus [4] = test: Antiviral activity against Influenza A virus H1N1 (A/Weiss/43) infected in MDCK cells assessed as reduction of viral replication treated for 72 hrs after viral adsorption by TCID50 method; assay type: functional, organism-based
[5] = Cytotoxicity against dog MDCK cells assessed as reduction in cell viability incubated for 72 hrs by MTT assay; assay type: toxicity, cell-based, Canis lupus familiaris
Influenza A virus [6] = test: Antiviral activity against Influenza A virus H1N1 (A/Weiss/43) infected in MDCK cells assessed as reduction in cell pathological changes at 25 to 50 uM by microscopic analysis; assay type: functional, organism-based; details: dose 25-50 µM
Influenza A virus [7] = test: Antiviral activity against Influenza A virus H1N1 (A/Virginia/ATCC2/2009) infected in MDCK cells assessed as reduction of viral replication incubated for 72 hrs by TCID50 method; assay type: functional, organism-based
[8] = Selectivity index, ratio of CC50 for dog MDCK cells to EC50 for antiviral activity against Influenza A virus H1N1 (A/Virginia/ATCC2/2009) infected in MDCK cells; assay type: toxicity, cell-based; details: read-out: Ratio CC50/EC50
Influenza A virus [9] = test: Antiviral activity against Influenza A virus H3N2 (A/California/2004) infected in MDCK cells assessed as reduction of viral replication incubated for 72 hrs by TCID50 method; assay type: functional, organism-based
Influenza A virus [10] = test: Antiviral activity against Influenza A virus infected in human A549 cells assessed as reduction of viral replication at 6.25 to 100 uM incubated for 72 hrs by TCID50 method; assay type: functional, organism-based; details: dose 6.25-100 µM
Influenza A virus [11] = test: Antiviral activity against Influenza A virus H1N1 (A/Weiss/43)-infected in dog MDCK cells assessed as reduction in oxidative stress by measuring proportion of cells with excessive ROS accumulation at 25 uM treated at 2 hrs post-infection and measured after 36 hrs by DCFH-DA staining based flow cytometry (reference value: 30.6%); assay type: functional; design: scale not given: the % may be the effect or the level left
[12] = Toxicity in dog MDCK cells assessed as ROS production by measuring proportion of cells with excessive ROS accumulation at 50 uM measured after 36 hrs by DCFH-DA staining based flow cytometry (reference value: 0.094%); assay type: cell-based, Canis lupus familiaris
Influenza A virus [13] = test: Antiviral activity against Influenza A virus H1N1 infected in human A549 cells assessed as decrease in apoptosis by measuring decrease in Bax to Bcl-2 ratio at 25 to 50 uM measured after 24 hrs by western blot analysis; assay type: functional, organism-based; details: dose 25-50 µM
Influenza A virus [14] = test: Antiviral activity against Influenza A virus H1N1 infected in dog MDCK cells assessed as decrease in apoptosis by measuring proportion of early apoptotic cells at 25 uM measured after 72 hrs by AnnexinV-FITC/PI staining based flow cytometry (reference value: 24.3%); assay type: functional; design: scale not given: the % may be the effect or the level left
Influenza A virus [15] = test: Antiviral activity against Influenza A virus H1N1 infected in dog MDCK cells assessed as decrease in apoptosis by measuring proportion of late apoptotic cells at 25 uM measured after 72 hrs by AnnexinV-FITC/PI staining based flow cytometry (reference value: 10.3%); assay type: functional; design: scale not given: the % may be the effect or the level left
Influenza A virus [16] = test: Antiviral activity against Influenza A virus H1N1 infected in dog MDCK cells assessed as decrease in apoptosis by measuring proportion of late apoptotic cells at 50 uM measured after 72 hrs by AnnexinV-FITC/PI staining based flow cytometry (reference value: 10.3%); assay type: functional; design: scale not given: the % may be the effect or the level left
[17] = Toxicity in dog MDCK cells assessed as proportion of viable cells at 50 uM measured after 72 hrs by AnnexinV-FITC/PI staining based flow cytometry (reference value: 90.6%); assay type: cell-based, Canis lupus familiaris; details: read-out: Activity
[18] = Toxicity in dog MDCK cells assessed as proportion of early apoptotic cells at 50 uM measured after 72 hrs by AnnexinV-FITC/PI staining based flow cytometry (reference value: 4.51%); assay type: cell-based, Canis lupus familiaris
[19] = Toxicity in dog MDCK cells assessed as proportion of late apoptotic cells at 50 uM measured after 72 hrs by AnnexinV-FITC/PI staining based flow cytometry (reference value: 3.45%); assay type: cell-based, Canis lupus familiaris
Influenza A virus [20] = test: Antiviral activity against Influenza A virus H1N1 infected in human A549 cells assessed as decrease in incompleted autophagy by measuring increase in p62 protein expression at 25 to 50 uM measured after 24 hrs by western blot analysis; assay type: functional, organism-based; details: dose 25-50 µM
Influenza A virus [21] = test: Antiviral activity against Influenza A virus H1N1 infected in human A549 cells assessed as decrease in RIG-1 pathway related protein expression by measuring decrease in RIG-1 protein expression at 25 to 50 uM measured after 24 hrs by western blot analysis; assay type: functional, organism-based; details: dose 25-50 µM
Influenza A virus [22] = test: Antiviral activity against Influenza A virus H1N1 infected in human A549 cells assessed as decrease in apoptosis inducing factor gene expression by measuring decrease in TRAIL gene expression at 25 to 50 uM measured after 24 hrs by qRT-PCR analysis; assay type: functional, organism-based; details: dose 25-50 µM
Influenza A virus [23] = test: Antiviral activity against Influenza A virus H1N1 infected in human A549 cells assessed as decrease in cytokine gene expression by measuring decrease in IP-10 gene expression at 25 to 50 uM measured after 24 hrs by qRT-PCR analysis; assay type: functional, organism-based; details: dose 25-50 µM
[24] = Toxicity in BALB/c mouse infected with Influenza A virus H1N1 (A/Weiss/43) assessed as kidney pathological changes at 25 to 100 mg/kg/day administered intranasally for 6 days starting from 3 hrs post-viral infection by Hematoxylin-Eosin staining based analysis; assay type: organism-based; details: in vivo, inhaled_or_intranasal, 144 h, dose 25-100 mg/kg/day, route nas, time 6 day
Influenza A virus [25] = test: Antiviral activity against Influenza A virus H1N1 (A/Weiss/43)-infected in BALB/c mouse assessed as reduction in Mx1 gene expression in lungs at 25 to 100 mg/kg/day administered intranasally for 6 days starting from 3 hrs post-viral infection by qRT-PCR analysis; assay type: functional, organism-based; details: dose 25-100 mg/kg/day, route nas, time 6.0 day
Influenza A virus [26] = test: Antiviral activity against Influenza A virus H1N1 (A/Weiss/43)-infected in BALB/c mouse assessed as reduction in RIG-1 gene expression in lungs at 25 to 100 mg/kg/day administered intranasally for 6 days starting from 3 hrs post-viral infection by qRT-PCR analysis; assay type: functional, organism-based; details: dose 25-100 mg/kg/day, route nas, time 6.0 day
Influenza A virus [27] = test: Antiviral activity against Influenza A virus H1N1 (A/Weiss/43)-infected in BALB/c mouse assessed as reduction in IL-8 gene expression in lungs at 25 to 100 mg/kg/day administered intranasally for 6 days starting from 3 hrs post-viral infection by qRT-PCR analysis; assay type: functional, organism-based; details: dose 25-100 mg/kg/day, route nas, time 6.0 day
Influenza A virus [28] = test: Antiviral activity against Influenza A virus H1N1 (A/Weiss/43)-infected in BALB/c mouse assessed as reduction in IFN-beta gene expression in lungs at 25 to 100 mg/kg/day administered intranasally for 6 days starting from 3 hrs post-viral infection by qRT-PCR analysis; assay type: functional, organism-based; details: dose 25-100 mg/kg/day, route nas, time 6.0 day

O=[N+]([O-])c1ccc(S(=O)(=O)N(Cc2ccccc2)c2cccc3ccccc23)cc1
Activity (Influenza A virus [1]): Dose-Dependent Effect
inhibition (Influenza A virus [2]): inactive
selectivity ratio at 72 h [3]: > 105
pEC50 (Influenza A virus [4]): 5.64
CC50 at 72 h [5]: > 800 µM
Activity (Influenza A virus [6]): Active
pEC50 (Influenza A virus [7]): 5.48
selectivity ratio [8]: > 240
pEC50 (Influenza A virus [9]): 5.18
Activity (Influenza A virus [10]): Active
Activity (Influenza A virus [11]): 12.3%
Activity [12]: 1.36%
inhibition (Influenza A virus [13]): Active
Activity (Influenza A virus [14]): 2.55%
Activity (Influenza A virus [15]): 1.21%
Activity (Influenza A virus [16]): 1.09%
viability at 72 h, 50 µM [17]: 96.9%
Activity [18]: 1.56%
Activity [19]: 0.71%
inhibition (Influenza A virus [20]): Active
inhibition (Influenza A virus [21]): Active
inhibition (Influenza A virus [22]): Active
inhibition (Influenza A virus [23]): Active
Activity [24]: Non-Toxic
Activity (Influenza A virus [25]): Active
Activity (Influenza A virus [26]): Active
Activity (Influenza A virus [27]): Active
Activity (Influenza A virus [28]): Active
